Experiments:
ISY (C. roseus) = molecular target: T1, ISY (C. roseus) (Catharanthus roseus, UniProt K7WDL7); assay: end point assay, GC-MS of products; type: biochemical; conditions: 500 μM 8-oxogeranial, 1 mM NADPH, 200 mM MOPS pH 7.0, 100 mM NaCl, 0.5% THF, 30 °C, 3 h; positive control
T1 construct: positive control; construct not described here; dimer 83 kDa

NcISY2 = molecular target: T2, NcISY2 (Nepeta cataria, UniProt A0A221J5X1); assay: end point assay, GC-MS of products; type: biochemical; conditions: 500 μM 8-oxogeranial, 1 mM NADPH, 200 mM MOPS pH 7.0, 100 mM NaCl, 0.5% THF, 0.5 μM enzyme, 30 °C, 3 h
T2 construct: gene ISY2; N-terminal His-tag (pOPINF), E. coli soluBL21 (DE3), Ni-NTA and gel filtration; not fully homogeneous; dimer fraction
T2 sequence (A0A221J5X1 2-397): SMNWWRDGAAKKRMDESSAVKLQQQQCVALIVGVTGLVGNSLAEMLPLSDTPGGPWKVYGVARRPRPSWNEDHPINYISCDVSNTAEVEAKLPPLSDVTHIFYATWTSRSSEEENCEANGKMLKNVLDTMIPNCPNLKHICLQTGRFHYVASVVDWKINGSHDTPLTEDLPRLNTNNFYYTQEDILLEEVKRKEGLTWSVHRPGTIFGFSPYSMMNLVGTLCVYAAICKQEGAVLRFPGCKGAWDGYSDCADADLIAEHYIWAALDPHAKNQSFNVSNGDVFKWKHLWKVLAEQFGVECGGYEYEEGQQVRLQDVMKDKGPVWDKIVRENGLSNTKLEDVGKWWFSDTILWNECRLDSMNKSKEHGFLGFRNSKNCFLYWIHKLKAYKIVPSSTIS

T1 sequence (K7WDL7 whole entry): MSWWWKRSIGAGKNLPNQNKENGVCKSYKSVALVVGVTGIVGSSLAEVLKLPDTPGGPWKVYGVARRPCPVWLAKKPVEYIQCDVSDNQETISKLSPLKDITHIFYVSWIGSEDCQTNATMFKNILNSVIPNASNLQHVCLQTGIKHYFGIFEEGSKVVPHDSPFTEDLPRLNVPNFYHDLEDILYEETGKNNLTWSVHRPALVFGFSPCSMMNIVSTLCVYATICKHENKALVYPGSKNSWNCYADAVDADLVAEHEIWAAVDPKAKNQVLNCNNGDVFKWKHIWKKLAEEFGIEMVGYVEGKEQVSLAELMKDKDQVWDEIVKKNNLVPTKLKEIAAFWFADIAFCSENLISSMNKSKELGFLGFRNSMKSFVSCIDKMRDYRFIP

C/C(C=O)=C\CC/C(C)=C/C=O [8-oxogeranial]
end point assay, GC-MS of products (ISY (C. roseus)): a positive control was conducted with ISY (C. roseus) | end point assay, GC-MS of products (NcISY2): the other (NcISY2 and NmISY2) has robust catalytic activity toward the 8-oxogeranial substrate
